Assay results taken from PMC8752759, “GSNOR regulates ganoderic acid content in Ganoderma lucidum under heat stress through S-nitrosylation of catalase” (Communications Biology, 2022).

How the values were obtained:
Assay type in all cases: biochemical
CAT (catalase) [1] = target: T1, CAT (catalase) (Ganoderma lucidum, UniProt A0A223M0M1, C660S); test: biotin-switch immunoblot; CAT activity by H2O2 decomposition at […] nm; details: covalent; S-nitrosylation; room temperature, dark, 60 min
T1 construct: recombinant, pColdI vector, His-tagged, E. coli BL21(DE3), Ni-NTA purified; 6 cysteine residues

CAT (catalase) [2] = target: T2, CAT (catalase) (Ganoderma lucidum, UniProt A0A223M0M1); test: biotin-switch immunoblot, LC-MS/MS of sites; CAT activity by H2O2 decomposition at […] nm; details: covalent; S-nitrosylation at Cys401, Cys642, Cys653; room temperature, dark, 60 min; activating
T2 construct: recombinant, pColdI vector, His-tagged, E. coli BL21(DE3), Ni-NTA purified; 6 cysteine residues

CAT (catalase) [3] = target: T3, CAT (catalase) (Ganoderma lucidum, UniProt A0A223M0M1, C419S); test: biotin-switch immunoblot; CAT activity by H2O2 decomposition at […] nm; details: covalent; S-nitrosylation; room temperature, dark, 60 min
T3 construct: recombinant, pColdI vector, His-tagged, E. coli BL21(DE3), Ni-NTA purified; 6 cysteine residues

CAT (catalase) [4] = target: T4, CAT (catalase) (Ganoderma lucidum, UniProt A0A223M0M1, C671S); test: as above; details: covalent; S-nitrosylation; room temperature, dark, 60 min
T4 construct: recombinant, pColdI vector, His-tagged, E. coli BL21(DE3), Ni-NTA purified; 6 cysteine residues
T4 sequence (A0A223M0M1 entry or part of it C671S): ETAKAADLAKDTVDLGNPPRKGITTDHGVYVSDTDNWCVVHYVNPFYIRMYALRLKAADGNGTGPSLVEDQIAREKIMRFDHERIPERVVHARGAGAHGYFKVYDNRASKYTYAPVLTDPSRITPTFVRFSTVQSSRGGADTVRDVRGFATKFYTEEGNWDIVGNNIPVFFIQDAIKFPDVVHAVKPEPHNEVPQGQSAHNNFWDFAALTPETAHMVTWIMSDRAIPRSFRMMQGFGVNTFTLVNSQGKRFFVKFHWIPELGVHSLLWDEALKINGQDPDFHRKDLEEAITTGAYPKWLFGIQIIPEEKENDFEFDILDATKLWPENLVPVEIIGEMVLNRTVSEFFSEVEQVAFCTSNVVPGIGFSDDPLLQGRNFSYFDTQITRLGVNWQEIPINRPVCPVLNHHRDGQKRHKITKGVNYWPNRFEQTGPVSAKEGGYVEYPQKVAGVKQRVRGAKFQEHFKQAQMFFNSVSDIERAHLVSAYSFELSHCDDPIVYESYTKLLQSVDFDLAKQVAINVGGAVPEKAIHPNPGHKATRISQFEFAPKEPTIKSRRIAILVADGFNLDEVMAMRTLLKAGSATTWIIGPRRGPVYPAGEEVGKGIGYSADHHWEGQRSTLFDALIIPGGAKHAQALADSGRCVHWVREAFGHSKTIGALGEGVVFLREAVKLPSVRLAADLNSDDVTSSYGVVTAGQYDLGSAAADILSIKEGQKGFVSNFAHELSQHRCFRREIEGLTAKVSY

T2 sequence (A0A223M0M1 entry or part of it): as the sequence (A0A223M0M1 entry or part of it C671S) above, with S653C counted along it
T1 sequence (A0A223M0M1 entry or part of it C660S): as the sequence (A0A223M0M1 entry or part of it C671S) above, with C642S, S653C counted along it
T3 sequence (A0A223M0M1 entry or part of it C419S): as the sequence (A0A223M0M1 entry or part of it C671S) above, with C401S, S653C counted along it

For `N[C@@H](CCC(=O)N[C@@H](CSN=O)C(=O)NCC(=O)O)C(=O)O` [GSNO, S-nitrosoglutathione], the “biotin-switch immunoblot; CAT activity by H2O2 decomposition at 240 nm” value (“biotin-switch immunoblot; CAT activity” below) (CAT (catalase) [1]) was “The C401S, C642S, and C653S single mutants”, the “biotin-switch immunoblot, LC-MS/MS of sites; CAT activity by H2O2 decomposition” value (CAT (catalase) [2]) was “CAT was S-nitrosylated, which was induced by GSNO” and the “biotin-switch immunoblot; CAT activity” value (CAT (catalase) [3]) was “The C401S, C642S, and C653S single mutants”. The “biotin-switch immunoblot; CAT activity” value (CAT (catalase) [4]) was “The C401S, C642S, and C653S single mutants”.
